{"source": "patent US20110306137A1", "about": "“METHODS AND COMPOSITIONS FOR MODULATING DIFFERENTIATION OF PLURIPOTENTIAL CELLS” (priority 2007, published 2011)", "molecules": {"B1": {"name": "BMP-6: recombinant human bone morphogenetic protein 6 (protein, UniProt P22004 375-513, looked up)", "Bone morphogenetic protein 6": "SASSRRRQQSRNRSTQSQDVARVSSASDYNSSELKTACRKHELYVSFQDLGWQDWIIAPKGYAANYCDGECSFPLNAHMNATNHAIVQTLVHLMNPEYVPKPCCAPTKLNAISVLYFDDNSNVILKKYRNMVVRACGCH"}}, "key": {"CCND1": {"tested_on": "CCND1", "test": "RT2 Profiler PCR Array Human Notch Signaling Pathway", "format": "cell-based", "details": "Jag-activated MASCs compared to MASCs; two-fold criteria", "experimental": "(§1) The expression of a number of genes involved in Notch signaling, and in signaling pathways that interact with the Notch pathway (Wnt, Shh), was compared in DRCs and MASCs, using a commercial array (RT^2 Profiler PCR Array Human Notch Signaling Pathway plate, SA Biosciences No. PAHS-059F). The genes that were analyzed are shown in Table 2 (taken from SA Biosciences online Catalogue). Notch pathway members include genes encoding Notch ligands, enzymes that modify the Notch protein and various transcriptional regulatory proteins that control the expression of the Notch pathway members. Notch pathway targets are genes whose expression is either directly or indirectly regulated by Notch activation. Wnt pathway members are Wnt ligands or proteins that participate in WNT-mediated signaling pathways. The Wnt pathway was investigated because of known crosstalk between the Notch and Wnt signaling pathways, and because it is involved in osteogenic differentiation, which is inhibited in DRCs.\n(§2) MASCs and DRCs, prepared and frozen as described in Examples 1-3, were thawed (Example 4), grown for 4-7 days in alpha-MEM/10% FBS/pen-strep, then replated into 10-cm Petri dishes at a concentration of 0.5×10^6 cells/dish, in duplicate. After re-plating, cells were grown for 4 days to allow intracellular levels of endogenous NICD, activated by trypsinization, to return to basal. At the end of this period, culture medium was carefully aspirated, the cells were lysed in 400 μl RLT Buffer (Qiagen, Valencia, Calif.), and the lysate was scraped from the plate.\n(§3) As a control, MASCs that had been exposed to clustered soluble Jagged1 protein, to activate the Notch signaling pathway (see Example 7), were also analyzed and compared to MASCs.\n(§4) The lysate was homogenized using a QiaShredder (Qiagen, Valencia, Calif.). The homogenate was mixed with ethanol, and the mixture was applied to a RNeasy column (Qiagen, Valencia, Calif.) and processed according to the manufacturer's instructions. The eluate was treated with a DNA-Free™ kit (Ambion, Austin, Tex.), according to the manufacturer's protocol, for elimination of genomic DNA.\n(§5) RNA concentration and purity was assayed on Nanodrop spectrophotometer (Thermo Scientific, Wilmington, Del.). […]\n(§6) cDNA samples, synthesized as described above, were diluted and added to RT^2 SYBR Green qPCR Master Mix (SA Biosciences) according to the manufacturer's recommendations. […] SYBR green fluorescence, normalized to controls also present on the array, is used a s a measure of mRNA level.\n(§7) Results were analyzed using analysis tools provided by SA Biosciences, assigning results from MASCs to the “Control” field and DRC results to the “Test” field, to obtain figures for relative changes in expression for the genes assayed. […]"}, "HES1": {"tested_on": "HES1", "test": "RT2 Profiler PCR Array Human Notch Signaling Pathway", "format": "cell-based", "details": "Jag-activated MASCs compared to MASCs", "experimental": "as §1, §2, §3, §4, §5, §6, §7"}, "HR": {"tested_on": "HR", "test": "RT2 Profiler PCR Array Human Notch Signaling Pathway", "format": "cell-based", "details": "Jag-activated MASCs compared to MASCs", "experimental": "as §1, §2, §3, §4, §5, §6, §7"}, "WISP1": {"tested_on": "WISP1", "test": "RT2 Profiler PCR Array Human Notch Signaling Pathway", "format": "cell-based", "details": "Jag-activated MASCs compared to MASCs", "experimental": "as §1, §2, §3, §4, §5, §6, §7"}, "MASCs [1]": {"tested_on": "MASCs", "test": "Adipogenic differentiation of MASCs with clustered Jag1/Fc, DAPT, BMP6", "format": "cell-based, human", "experimental": "MASCs were prepared essentially as described in Example 1. Culture in adipogenic differentiation medium was as described in Example 6. Treatment of cells with Anti-Fc and Clustered Jag1/Fc were as described in Example 7. Fixation, staining with Oil Red O and analysis of adipogenic differentiation were as described in Example 6."}, "[2]": {"tested_on": "genes involved in Notch signaling", "test": "RT2 Profiler PCR Array Human Notch Signaling Pathway, number of genes altered", "format": "cell-based", "details": "Jag-activated MASCs compared to MASCs; 84 genes tested", "experimental": "as §1, with “Wnt pathway members are Wnt ligands or proteins that participate in WNT-mediated signaling pathways. The Wnt pathway was investigated because of known crosstalk between the Notch and Wnt signaling pathways, and because it is involved in osteogenic differentiation, which is inhibited in DRCs.” left out\nAs a control, MASCs that had been exposed to clustered soluble Jagged1 protein, to activate the Notch signaling pathway (see Example 7), were also analyzed and compared to MASCs. […]\nas §6, §7"}, "MASCs [3]": {"tested_on": "MASCs", "test": "Osteogenic differentiation of MASCs with Notch activation by clustered Jag1/Fc, with or without DAPT", "format": "cell-based, human", "details": "for effect on Jagged stimulation of osteogenesis: 5 μM DAPT", "experimental": "MASCs (prepared essentially as described in Example 1) were plated at 10^4 cells/well in 96-well plates in […]MEM (Mediatech, Herndon, Va.) supplemented with 10% Fetal Bovine Serum (FBS, HyClone, Logan Utah) and cultured overnight. The next day, cells were transferred to osteogenic differentiation medium (composition described in Example 5).\nDuring the differentiation procedure, certain batches of cells were subjected to Notch activation via the Notch ligand Jagged. A fusion between the extracellular domain of the rat Jagged1 protein and the Fc region of human IgG (Jag1/Fc) was obtained from R&D Systems (Minneapolis, Minn.; Catalogue No. 599-JG), and the lyophilized preparation was reconstituted to a concentration of 1 mg/ml in PBS containing 0.1% (w/v) bovine serum albumin.\nThe chimeric Jag1/Fc protein was “clustered” by preincubation with a ten-fold weight excess of goat anti-human Fc (Sigma, St. Louis Mo.). Before use, the antibody solution (2 mg/ml) was dialyzed overnight, with three changes, against PBS to remove sodium azide. The volume of antibody solution was not changed by dialysis. For clustering, Jag1/Fc (1 mg/ml in PBS+0.1% BSA) and anti-human Fc (2 mg/ml in PBS) were mixed and incubated at room temperature for 40 min prior to addition to the cell cultures.\n(§8) Clustered Jag1/Fc was added to cultures at a final concentration of 5 μg/ml Jag1/Fc and 50 μg/ml antibody. Control cultures received only the antibody. Additional cultures received Jag1/Fc and anti-Fc as above, along with 5 μM N—[N-(3,5-Difluorophenacetyl)-L-alanyl]-S-phenylglycine t-butyl ester (DAPT), a […]-secretase inhibitor. Stock solutions of 2 mM DAPT in DMSO were obtained from Sigma-Aldrich, St. Louis, Mo. […]-secretase is a protease that, upon activation of transmembrane Notch protein by a Notch ligand, cleaves the Notch protein at a site that allows release of the Notch intracellular domain. Certain cultures also included BMP-6 (final concentration 500 ng/ml), as described in Example 5.\n(§9) After 10 days in culture, cells were fixed in methanol, stained with Alizarin Red and examined by microscopy as described in Example 5."}, "DRCs": {"tested_on": "DRCs", "test": "Osteogenic differentiation of DRCs with DAPT", "format": "cell-based, human", "details": "presence of BMP6", "experimental": "as §8, §9"}, "[4]": {"tested_on": "osteogenic differentiation", "test": "Osteogenic differentiation potential assay (Alizarin Red staining)", "format": "cell-based, human", "details": "BMP-6 500 ng/ml; MASCs, DRCs, mock DRCs", "experimental": "For assay of osteogenic differentiation potential, cells (MASCs, DRCs or mock DRCs) were plated at 10^4 cells/well in 96-well plates in […]MEM (Mediatech, Herndon, Va.) supplemented with 10% Fetal Bovine Serum (FBS, HyClone, Logan Utah) and cultured overnight.\nThe next day, the culture medium was replaced with DMEM (Mediatech, Herndon, Va.) containing high glucose, pyruvate, glutamine and 10% FBS supplemented with 50 μg/ml Ascorbic acid (L-ascorbic acid 2-phosphate, Wako Chemical, Ltd., Japan, added freshly before use), 10 mM β-glycerophosphate (Sigma-Aldrich, St. Louis, Mo.), and 100 nM Dexamethasone (Sigma-Aldrich, St. Louis, Mo.). This “osteogenic differentiation medium” was changed every 3-4 days.\nOsteogenic differentiation assays were conducted in the absence or presence of recombinant human bone morphogenetic protein 6 (BMP-6; R&D Systems, Minneapolis, Minn.), at a concentration of 500 ng/ml.\nOn day 14 or 17 after the transfer of cells into osteogenic differentiation medium, cultures were assayed for the presence of osteocytes by Alizarin Red staining. Cells were fixed by adding 100% methanol to the wells and incubating on ice for 3 min. The wells were then rinsed with water, and 40 mM alizarin red S (Sigma-Aldrich, St. Louis, Mo.), pH 4.2 was added. […]"}, "[5]": {"tested_on": "adipogenic differentiation", "test": "Adipogenic differentiation potential assay (Oil Red O staining)", "format": "cell-based, human", "details": "BMP-6 100 ng/ml; day 17-21", "experimental": "For assay of adipogenic differentiation potential, cells were plated at 10^4 cells/well in 96-well plates in […]MEM (Mediatech, Herndon, Va.) supplemented with 10% Fetal Bovine Serum (FBS, HyClone, Logan Utah) and cultured overnight.\nThe next day, the culture medium was replaced with DMEM (Mediatech, Herndon, Va.) containing high glucose, pyruvate, glutamine and 10% FBS supplemented with 1 μM Dexamethasone, […] 1-methyl-3 isobutylxanthine, 100 μM indomethacin and 10 μg/ml insulin (all supplements from Sigma-Aldrich, St. Louis, Mo.). This “adipogenic differentiation medium” was changed every 3-4 days.\nAdipogenic differentiation assays were conducted in the absence or presence of recombinant human bone morphogenetic protein 6 (BMP-6; R&D Systems, Minneapolis, Minn.) at a concentration of 100 ng/ml.\nOn day 17-21 after transfer of cells into adipogenic differentiation medium, cells were tested for adipocytic differentiation by staining with Oil Red O. Cells were fixed by adding 10% formalin to the wells and incubating for 30-60 min at room temperature. Wells were then washed with 60% isopropanol and allowed to dry completely. Oil Red O working solution was freshly prepared from Oil Red stock solution (3.5 mg/ml in isopropanol) by diluting it 3:2 in water and filtering. Staining was conducted for 10 min; and the wells were then washed extensively with water. […]"}}}
{"molecule": "Jag1/Fc: fusion between the extracellular domain of the rat Jagged1 protein and the Fc region of human IgG, clustered with goat anti-human Fc", "values": [{"measurement": "expression of CCND1 (cyclin D1)", "setting": "CCND1", "result": "not altered"}, {"measurement": "expression of Hes1", "setting": "HES1", "result": "up-regulated"}, {"measurement": "expression of HR", "setting": "HR", "result": "up-regulated"}, {"measurement": "expression of Wisp1", "setting": "WISP1", "result": "up-regulated"}, {"measurement": "effect on BMP6-enhanced adipogenesis of MASCs", "setting": "MASCs [1]; Jag with BMP6", "result": "reversed"}, {"measurement": "effect on adipogenesis of MASCs", "setting": "MASCs [1]; Jag with BMP6 and DAPT", "result": "no effect"}, {"measurement": "effect on adipogenesis of MASCs", "setting": "MASCs [1]; clustered Jag1/Fc, absence of DAPT or BMP6", "result": "blocked"}, {"measurement": "number of genes with activated expression (two-fold or more)", "setting": "[2]", "result": 18, "unit": "genes"}, {"measurement": "number of genes with reduced expression (50% or less)", "setting": "[2]", "result": "three"}, {"measurement": "dose dependence of stimulation of osteogenesis", "setting": "MASCs [3]; additional experiments", "result": "dose-dependent"}, {"measurement": "effect on osteogenesis of MASCs (Alizarin Red)", "setting": "MASCs [3]; clustered Jag1/Fc 5 μg/ml, absence or presence of BMP6, 10 days", "result": "osteogenesis was strongly enhanced"}]}
{"molecule": "C[C@H](NC(=O)Cc1cc(F)cc(F)c1)C(=O)N[C@H](C(=O)OC(C)(C)C)c1ccccc1", "note": "[DAPT, N—[N-(3,5-Difluorophenacetyl)-L-alanyl]-S-phenylglycine t-butyl ester]", "values": [{"measurement": "effect on stimulation of adipogenesis by BMP6", "setting": "MASCs [1]; DAPT with BMP6", "result": "enhanced further"}, {"measurement": "effect on adipogenesis of MASCs", "setting": "MASCs [1]; DAPT, no BMP6", "result": "slightly enhanced adipogenesis"}, {"measurement": "effect on osteogenic potential exhibited by DRCs", "setting": "DRCs", "result": "reduced"}, {"measurement": "effect on Jagged stimulation of osteogenesis", "setting": "MASCs [3]; absence of BMP6", "result": "completely reversed"}, {"measurement": "effect on Jagged stimulation of osteogenesis", "setting": "MASCs [3]; presence of BMP6 500 ng/ml", "result": "strongly reduced"}]}
{"molecule": "B1", "values": [{"measurement": "effect of BMP-6 on degree of osteogenic differentiation", "setting": "[4]", "result": "increased the degree of osteogenic differentiation"}, {"measurement": "effect on adipogenesis of MASCs", "setting": "MASCs [1]; BMP6 in the differentiation medium", "result": "strongly enhanced adipogenesis"}, {"measurement": "effect of BMP-6 on adipocytic differentiation of MASCs", "setting": "[5]", "result": "enhanced"}]}
